From ChEMBL document CHEMBL1212699, “Chemical approaches to understanding O-GlcNAc glycosylation in the brain” (Nat Chem Biol, 2008)

Assay: Inhibition of beta-N-acetylglucosaminidase

- Ki: 4.6 pM
SMILES: CC(C)C(=O)N[C@H]1c2nc(CCc3ccccc3)cn2[C@H](CO)[C@@H](O)[C@@H]1O
